Results taken from US20250263436A1, “BROAD-SPECTRUM ANTIVIRAL DRUG FOR ENTEROVIRUS, AND APPLICATION” (WUHAN INSTITUTE OF VIROLOGY, CHINESE ACADEMY OF SCIENCES, priority 2020, published 2025).

Legend:
CVB3 = experiment: Inhibition of CVB3 in RD cells (viral RNA, qRT-PCR); type: cell-based; details: inhibiting CVB3 in RD cells
Procedure: (§1) (1) RD cells were plated in a 24-well plate.
(2) When the cells grew to a confluence of 70%-80%, the DMEM medium containing 10% serum was replaced with a DMEM medium containing 2% serum (the DMEM medium containing 2% serum was added in each well at an amount of 0.5 mL), and 5 μL of CVB3 virus of 1×10^6 PFU/mL was added to each well.
(§2) (3) After 1 h, the polypeptides with final concentrations of 0.3125 μM, 0.625 μM, 1.25 μM, 2.5 μM, and 5 μM were added respectively. The group without polypeptide added was used as a control.
(4) The samples were collected 24 h after the infection of CVB3 virus, and RNA was extracted with the total RNA extraction kit.
(§3) (5) The supernatant was discarded, then 350 μL of TRK lysate was added to each well, and the plate was put on a shaker for 5 min.
(§4) (6) 350 μL of 70% ethanol (DEPC) was added to each well, and then the plate was put on a shaker for 5 min.
(§5) (7) The solution in each well was transferred to a RNA extraction column for 1 min of centrifugation at 12000 g.
(§6) (8) The solution obtained in the recovery tube was reloaded on the column again for 1 min of centrifugation at 12000 g.
(§7) (9) RNA washing buffer 1 was added in the column for 30 s of centrifugation at 12000 g. […]
(§8) (14) 2 μL of RNA sample was subjected to a fluorescence quantitative experiment using the one step qRT-PCR kit. […]

EV71 [1] = experiment: Inhibition of EV71 in huh7 cells (viral RNA, qRT-PCR); type: cell-based, enterovirus 71 (EV71); details: anti-EV71 in huh7 cells
Procedure: (§9) (1) Different cells were plated in a 24-well plate.
(§10) (2) When the cells grew to a confluence of 70%-80%, the DMEM medium containing 10% serum was replaced with a DMEM medium containing 2% serum (the DMEM medium containing 2% serum was added in each well at an amount of 0.5 mL), and 5 μL of EV71 virus of 1×10^6 PFU/mL was added to each well.
(§11) (3) After 1 h, different polypeptides (RQ or control TAT) with final concentrations of 0.3125 μM, 0.625 μM, 1.25 μM, 2.5 μM, and 5 μM were added respectively. The group without polypeptide added was used as a control.
(§12) (4) The samples were collected 24 h after the infection of EV71 virus, and RNA was extracted with the total RNA extraction kit.
as §3, §4, §5, §6, §7
(§13) (14) 2 μL of RNA sample was subjected to a fluorescence quantitative experiment using the one step qRT-PCR kit.

Echo 11 = experiment: Inhibition of Echo 11 in RD cells (viral RNA, qRT-PCR); type: cell-based; details: inhibiting Echo 11 in RD cells
Procedure: as §1
(2) When the cells grew to a confluence of 70%-80%, the DMEM medium containing 10% serum was replaced with a DMEM medium containing 2% serum (the DMEM medium containing 2% serum was added in each well at an amount of 0.5 mL), and 5 μL of Echo 11 virus of 1×10^6 PFU/mL was added to each well.
as §2
(4) The samples were collected 24 h after the infection of Echo 11 virus, and RNA was extracted with the total RNA extraction kit.
as §3, §4, §5, §6, §7, §8

EV71 [2] = experiment: Inhibition of EV71 in RD cells (viral RNA, qRT-PCR); type: cell-based, enterovirus 71 (EV71); details: anti-EV71 in RD cells
Procedure: as §9, §10, §11, §12, §3, §4, §5, §6
(§14) (9) RNA washing buffer 1 was added in the column for 30 s of centrifugation at 12000 g.
(§15) (10) RNA washing buffer 2 was added in the column for 1 min of centrifugation at 12000 g.
(§16) (11) Step (10) was repeated.
(§17) (12) The column alone was centrifuged at 12000 g for 2 min to completely remove the residual RNA washing buffer.
(§18) (13) 50 μL of DEPC water was added to the column for 2 min of centrifugation at 12000 g.
as §13
(3) After 1 h, different polypeptides (RQ or control TAT) with final concentrations of 0.3125 μM, 0.625 μM, 1.25 μM, 2.5 μM and 5 μM were added respectively. The group without polypeptide added was used as a control.

EV71 [3] = experiment: Inhibition of EV71 in Vero cells (viral RNA, qRT-PCR); type: cell-based, enterovirus 71 (EV71); details: anti-EV71 in Vero cells
Procedure: as §9, §10, §11, §12, §3, §4, §5, §6, §14, §15, §16, §17, §18, §13
(1) Vero E6 cells were plated in a 24-well plate.
(3) After 1 h, different polypeptides (LQ or SQ) with final concentrations of 0.3125 μM, 0.625 μM, 1.25 μM, 2.5 μM, and 5 μM were added respectively. The group without polypeptide added was used as a control.

[4] = Toxicity assay in 293T cells (CCK-8); type: cell-based; details: human, 293T cells, read-out: Viability of Huh7 cell (%)
Procedure: (1) Different cells were plated in a 96-well plate at 100 μL per well.
(2) When the cells grew to a confluence of 70%-80%, the DMEM medium containing 10% serum was replaced with a DMEM medium containing 2% serum, and a certain concentration gradient of polypeptide RQ was added, so that the final concentrations of the polypeptide in the wells were 0.073242 μM, 0.146484 μM, 0.292969 μM, 0.585938 μM, 1.171875 μM, 2.34375 μM, 4.6875 μM, 9.375 μM, 18.75 μM, 37.5 μM, 75 μM, 150 μM, and 300 μM, respectively.
(3) The samples were collected 24 h after the addition of the polypeptide, and then 10 μL of live cell detection reagent CCK-8 was added to each well and mixed well.
(4) The plate was placed at 37° C. for 2 h.
(5) The absorbance value at OD450 was detected by a microplate reader.

CVA16 = experiment: Inhibition of CVA16 in RD cells (viral RNA, qRT-PCR); type: cell-based; details: anti-CVA16 in RD cells
Procedure: as §1
(2) When the cells grew to a confluence of 70%-80%, the DMEM medium containing 10% serum was replaced with a DMEM medium containing 2% serum (the DMEM medium containing 2% serum was added in each well at an amount of 0.5 mL), and 5 μL of CVA16 virus of 1×10^6 PFU/mL was added to each well.
(3) After 1 h, different polypeptides with final concentrations of 0.3125 μM, 0.625 μM, 1.25 μM, 2.5 μM, and 5 μM were added respectively. The group without polypeptide added was used as a control.
(4) The samples were collected 24 h after the infection of CVA16 virus, and RNA was extracted with the total RNA extraction kit.
as §3, §4, §5, §6, §7, §13

EV71 [5] = experiment: Inhibition of EV71 in 293T cells (viral RNA, qRT-PCR); type: cell-based, enterovirus 71 (EV71); details: anti-EV71 in 293T cells
Procedure: as §9, §10, §11, §12, §3, §4, §5, §6, §7, §13

SMILES: CC[C@H](C)[C@H](NC(=O)[C@H](C)NC(=O)[C@H](CO)NC(=O)[C@H](CCCNC(=N)N)NC(=O)[C@H](CC(N)=O)NC(=O)[C@H](CC(N)=O)NC(=O)[C@H](Cc1ccc(O)cc1)NC(=O)[C@H](CCC(=O)O)NC(=O)[C@H](CCCNC(=N)N)NC(=O)CNC(=O)[C@H](CO)NC(=O)CNC(=O)[C@H](CCCNC(=N)N)NC(=O)[C@H](CCCNC(=N)N)NC(=O)[C@H](CCCNC(=N)N)NC(=O)[C@H](CCC(N)=O)NC(=O)[C@H](CCCNC(=N)N)NC(=O)[C@H](CCCNC(=N)N)NC(=O)[C@H](CCCCN)NC(=O)[C@H](CCCCN)NC(=O)[C@H](CCCNC(=N)N)NC(=O)CNC(=O)[C@@H](N)Cc1ccc(O)cc1)C(=O)NCC(=O)N[C@@H](CC(N)=O)C(=O)N[C@H](C(=O)N[C@H](C(=O)N[C@@H](CCC(=O)O)C(=O)N[C@@H](C)C(=O)N[C@@H](CC(C)C)C(=O)N[C@@H](Cc1ccccc1)C(=O)N[C@@H](CCC(N)=O)C(=O)O)[C@@H](C)CC)[C@@H](C)O [RQ]
- IC50 (CVB3): 2310 nM
- IC50 (EV71 [1]): 410 nM
- IC50 (Echo 11): 370 nM
- IC50 (EV71 [2]): 1350 nM
- IC50 (EV71 [3]): 660 nM
- Viability of 293T cells at 24 h, 0.073242 µM ([4]; Table 15 (third cell line of Example 9), RQ 0.073242 μM): 98.4%
- Viability of 293T cells at 24 h, 0.146484 µM ([4]; Table 15, RQ 0.146484 μM): 101%
- Viability of 293T cells at 24 h, 0.292969 µM ([4]; Table 15, RQ 0.292969 μM): 101%
- Viability of 293T cells at 24 h, 0.585938 µM ([4]; Table 15, RQ 0.585938 μM): 100%
- Viability of 293T cells at 24 h, 1.17188 µM ([4]; Table 15, RQ 1.171875 μM): 99.7%
- Viability of 293T cells at 24 h, 2.34375 µM ([4]; Table 15, RQ 2.34375 μM): 99.1%
- Viability of 293T cells at 24 h, 4.6875 µM ([4]; Table 15, RQ 4.6875 μM): 98.6%
- Viability of 293T cells at 24 h, 9.375 µM ([4]; Table 15, RQ 9.375 μM): 99.7%
- Viability of 293T cells at 24 h, 18.75 µM ([4]; Table 15, RQ 18.75 μM): 100%
- Viability of 293T cells at 24 h, 37.5 µM ([4]; Table 15, RQ 37.5 μM): 102%
- Viability of 293T cells at 24 h, 75 µM ([4]; Table 15, RQ 75 μM): 102%
- Viability of 293T cells at 24 h, 150 µM ([4]; Table 15, RQ 150 μM): 66.6%
- IC50 (CVA16): 2160 nM
- IC50 (EV71 [5]): 3000 nM
